Laboratory results taken from US20240368219A1, “ACTIVATION OF E6AP/UBE3A-MEDIATED PROTEIN UBIQ[…] D[…] BY A CYCLIC GAMMA-AA PEPTIDE” (University of South Florida, priority 2022, published 2024).
pKd: −log10 of the molar value. Several values for one entry are separate records, joined by “and”; a condition that tells them apart may be missing. Equal entries are not always repeated.

Assays:
HECT domain of E6AP = target: T1, HECT domain of E6AP (Homo sapiens, UniProt Q05086); assay: Fluorescence polarization binding affinity of FITC-labeled peptides with the E6AP HECT domain; conditions: Kd of the peptide-HECT complex
T1 construct: serial dilution of E6AP HECT domain; inferred from pET28a vector and Ni-NTA purification; made in house; host or cells: E. coli BL21 (DE3) pLysS, plasmid pET28a-E6AP HECT
T1 sequence (Q05086 518-875 limits assumed): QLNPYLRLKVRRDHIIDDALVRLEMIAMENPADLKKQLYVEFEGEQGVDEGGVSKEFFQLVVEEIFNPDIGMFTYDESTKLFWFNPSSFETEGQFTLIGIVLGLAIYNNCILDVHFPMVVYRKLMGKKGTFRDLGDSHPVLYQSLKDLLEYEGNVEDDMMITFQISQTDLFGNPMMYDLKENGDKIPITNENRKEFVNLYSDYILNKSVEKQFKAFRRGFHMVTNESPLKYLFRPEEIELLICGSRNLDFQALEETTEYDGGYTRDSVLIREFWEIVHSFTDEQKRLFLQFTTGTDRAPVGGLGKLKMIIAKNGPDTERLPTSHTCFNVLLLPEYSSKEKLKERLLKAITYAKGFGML
Protocol: The library was screened based on the binding between the bead-anchored peptides with the HECT domain of E6AP with an N-terminal Flag tag that was recognized by an anti-Flag antibody labeled with AlexaFluor 488 that would emit green fluorescence. […] The peptide ligands from the screen were named P1-8 and they were resynthesized to measure their individual binding affinities with the HECT domain by fluorescence polarization (FP).
The binding affinity (Kd) of the peptides were measured by fluorescence polarization. Briefly, a constant amount of the 100 nM FITC-labeled cyclic peptide was incubated with a serial dilution of E6AP HECT domain. The Kd values was calculated using the following equation, in which the Lst and x refer to the concentration of peptide and protein, respectively.

pronase = assay: Enzymatic stability study with pronase (HPLC, MS); assay type: in vitro ADME; conditions: 0.1 mg/mL pronase, 37° C., 24 h
Protocol: (§1) A distinctive characteristic of γ-AA peptides compared with canonical peptides is their remarkable resistance to protease. To assay the stability of P6 in presence of protease, P6 was incubated with 0.1 mg/mL pronase at 37° C. for 24 h.
0.01 mg/mL P6 was incubated with 0.1 mg/mL pronase in 100 mM ammonium bicarbonate buffer (pH 7.8) at 37° C. for 24 h. The reaction mixture was concentrated in a speed vacuum to remove the water and ammonium bicarbonate. The remains were dissolved in 100 μL H2O/CH3CN and analyzed by a Waters analytical HPLC system with a 1 mL/min flow rate and 5-100% linear gradient of solvent B (0.1% TFA in acetonitrile) in A (0.1% TFA in water) over the duration of 50 min. The UV detector was set to 215 nm.

[1] = Serum stability assay (25% serum, HPLC); assay type: in vitro ADME, human; conditions: 25% serum (v/v), 37° C., 24 h
Protocol: as §1
The serum stabilities of peptides were determined in 25% (v/v) aqueous pooled serum from human male AB plasma (Sigma-Aldrich, Milan, Italy). 1 mg P6 was dissolved in 50 μL CH3CN/H2O (70:30, v/v) and then diluted in serum and incubated at 37° C. for 24 h. Then, 100 μL of solution was added to 100 μL of CH3CN on ice for 15 min and was centrifuged at 4° C. for 10 min. The supernatant was then analyzed by a Waters analytical HPLC system with a 1 mL/min flow rate and 5-100% linear gradient of solvent B (0.1% TFA in acetonitrile) in A (0.1% TFA in water) over the duration of 50 min. The UV detector was set to 215 nm.

Row | SMILES | pKd (HECT domain of E6AP) | stability in presence of protease (pronase) | stability in human serum [1]
1 | COc1cc(CC(=O)N2CC(=O)N[C@@H](C)CN(C(=O)Cc3cc(OC)cc(OC)c3)CC(=O)N[C@@H](CC(C)C)CN(CC(N)=O)C(=O)CCSCc3ccc(cc3)C(=O)N[C@@H](Cc3ccccc3)CN(C(=O)Cc3ccc4c(c3)OCO4)CC(=O)N[C@@H](Cc3ccccc3)C2)cc(OC)c1 [P7] | 6.66 to 7.10 | – | –
2 | C[C@H]1CN(C(=O)Cc2ccc3c(c2)OCO3)CC(=O)N[C@@H](Cc2ccccc2)CN(C(=O)Cc2ccc3ccccc3c2)CC(=O)N[C@@H](CCC(=O)O)CN(C(=O)CC2CC2)CC(=O)N[C@@H](Cc2ccccc2)CN(CC(N)=O)C(=O)CCSCc2ccc(cc2)C(=O)N1 [P8] | 6.66 to 7.10 | – | –
3 | COc1cc(CC(=O)N2CC(=O)N[C@@H](Cc3ccccc3)CN(C(=O)CC3CC3)CC(=O)N[C@@H](CC(C)C)CN(CC(N)=O)C(=O)CCSCc3ccc(cc3)C(=O)N[C@@H](CCC(=O)O)CN(C(=O)Cc3ccc4c(c3)OCO4)CC(=O)N[C@@H](CC(C)C)C2)cc(OC)c1 [P5] | 6.66 to 7.10 | – | –
4 | COc1cc(CC(=O)N2CC(=O)N[C@@H](Cc3ccccc3)CN(C(=O)CC3CC3)CC(=O)N[C@@H](CC(C)C)CN(CC(N)=O)C(=O)CCSCc3ccc(cc3)C(=O)N[C@@H](CCCCN)CN(C(=O)Cc3ccc4ccccc4c3)CC(=O)N[C@@H](CC(C)C)C2)cc(OC)c1 [P6] | 6.66 to 7.10 and 6.66 | resistant to protease cleavage | stability was confirmed
5 | CC(C)C[C@H]1CN(CC(N)=O)C(=O)CCSCc2ccc(cc2)C(=O)N[C@@H](Cc2ccccc2)CN(C(=O)Cc2ccc3ccccc3c2)CC(=O)N[C@@H](CC(C)C)CN(C(=O)CCC2CCCCC2)CC(=O)N[C@@H](Cc2ccccc2)CN(C(=O)Cc2ccc3c(c2)OCO3)CC(=O)N1 [P4] | 6.66 to 7.10 | – | –
6 | CC(C)C[C@H]1CN(CC(N)=O)C(=O)CCSCc2ccc(cc2)C(=O)N[C@@H](C)CN(C(=O)Cc2ccc3ccccc3c2)CC(=O)N[C@@H](CC(C)C)CN(C(=O)CCc2ccccc2)CC(=O)N[C@@H](Cc2ccccc2)CN(C(=O)Cc2ccc3c(c2)OCO3)CC(=O)N1 [P3] | 6.66 to 7.10 | – | –
